Experimental data reported in ChEMBL document CHEMBL3044558, “Structure-activity relationship development of dihaloaryl triazole compounds as insecticides and acaricides. 1. Phenyl thiophen-2-yl triazoles” (2007).
Activity calls are given as the source filed them. The calls are words filed in the database; no cut-off is given here.

Tests used:
Spodoptera exigua = experiment: Insecticidal activity against Spodoptera exigua second-instar larvae feeded on 400 ppm compound treated lepidopteran diet assessed as insect mortality measured 5 days post compound treatment under green house conditions; type: functional; settings: at 400 ppm
Tetranychus urticae = experiment: Insecticidal activity against female Tetranychus urticae (two-spotted spider mite) infested cotton leaf disks followed by 2.5 ppm compound spraying after oviposit assessed as insect mortality measured after 6 days post compound application under green house conditions; type: functional; settings: foliar, 144 h
Trichoplusia ni [1] = experiment: Insecticidal activity against Trichoplusia ni (cabbage looper) second-instar larvae infested on 400 ppm compound pre-treated cabbage leaf disk assessed as insect mortality measured 5 days post compound treatment under green house conditions; type: functional; settings: at 400 ppm
Heliothis virescens = experiment: Insecticidal activity against Heliothis virescens (tobacco budworm) second-instar larvae infested on 400 ppm compound pre-treated cotton cotyledon disk assessed as insect mortality measured 5 days post compound treatment under green house conditions; type: functional
Aphis gossypii [2] = experiment: Insecticidal activity against Aphis gossypii (cotton aphid) infested one week old Crookneck squash plants assessed as insect mortality at 50 ppm measured after 3 days post compound application under green house conditions; type: functional; settings: 72 h
Bemisia tabaci [3] = experiment: Insecticidal activity against Bemisia tabaci (sweet potato whitefly) second-instar larvae infested five weeks old cotton plants followed by compound 250 ppm compound spraying after insect oviposit assessed as insect mortality measured 13 days post compound treatment under green house conditions; type: functional
Bemisia tabaci [4] = tested on: Bemisia tabaci
Trichoplusia ni [5] = tested on: Trichoplusia ni
Aphis gossypii [6] = tested on: Aphis gossypii

Compound | mortality (Spodoptera exigua) [%] | mortality at 2.5 ppm (Tetranychus urticae) [%] | mortality (Trichoplusia ni [1]) [%] | mortality (Heliothis virescens) [%] | mortality at 50 ppm (Aphis gossypii [2]) [%] | mortality (Bemisia tabaci [3]) [%] | mortality (Bemisia tabaci [4]) | mortality (Trichoplusia ni [5]) | mortality (Aphis gossypii [6])
Cc1c(-c2ccc(OC(F)(F)C(F)Cl)cc2)sc(-c2nc(-c3c(F)cccc3Cl)nn2C)c1C (stereo unspecified) | 60 | 80 | <50 | 90 | < 50 | 60 | – | – | –
Cc1sc(-c2nc(-c3c(F)cccc3Cl)nn2C)c(C)c1-c1ccc(Cl)cc1 | 80 | 80 | <50 | 90 | 50 | – | inactive | – | –
Cc1cc(C2=CCC(OC(=O)C(F)(F)Br)CC2)sc1-c1nc(-c2c(F)cccc2Cl)nn1C (stereo unspecified) | <50 | 70 | – | 90 | < 50 | – | – | inactive | –
Cc1cc(-c2ccc(C(F)(F)F)cc2)sc1-c1nc(-c2c(F)cccc2Cl)nn1C | 90 | 90 | 90 | 90 | < 50 | <50 | – | – | –
Cc1cc(-c2ccc(OC(F)(F)C(Cl)Cl)cc2)sc1-c1nc(-c2c(F)cccc2Cl)nn1C | 90 | 90 | 80 | 90 | 90 | 50 | – | – | –
CCOc1ccc(-c2csc(-c3nc(-c4c(F)cccc4Cl)nn3C)c2C)cc1 | 80 | 90 | 90 | 90 | 50 | 90 | – | – | –
Cc1c(-c2ccc(OC(F)(F)F)cc2)sc(-c2nc(-c3c(F)cccc3Cl)nn2C)c1C | 80 | 90 | 90 | <50 | < 50 | 70 | – | – | –
Cc1c(-c2ccc(OC(F)=C(Cl)Cl)cc2)csc1-c1nc(-c2c(F)cccc2Cl)nn1C | 80 | 90 | <50 | 90 | 70 | 70 | – | – | –
Cc1cc(-c2cccc(C(F)(F)F)c2F)sc1-c1nc(-c2c(F)cccc2Cl)nn1C | 60 | 90 | 90 | 90 | 60 | – | inactive | – | –
Cc1c(-c2ccc(OC(F)(F)C(Cl)Cl)cc2)csc1-c1nc(-c2c(F)cccc2Cl)nn1C | 90 | 90 | <50 | 90 | 90 | 90 | – | – | –
Cc1cc(-c2ccc(C(C)C)cc2)sc1-c1nc(-c2c(F)cccc2Cl)nn1C | 70 | 90 | 90 | 90 | < 50 | – | inactive | – | –
Cc1c(-c2ccc(C(C)C)cc2)csc1-c1nc(-c2c(F)cccc2Cl)nn1C | 80 | 90 | 50 | 90 | – | – | inactive | – | inactive
Cc1c(-c2ccc(OC(F)(F)C(F)C(F)(F)F)cc2)csc1-c1nc(-c2c(F)cccc2Cl)nn1C (stereo unspecified) | 60 | 90 | 90 | 90 | 90 | 90 | – | – | –
CCOc1ccc(-c2cc(Cl)c(-c3nc(-c4c(F)cccc4Cl)nn3C)s2)cc1 | 80 | 90 | 90 | 60 | – | – | inactive | – | inactive
CCOc1ccc(-c2sc(-c3nc(-c4c(F)cccc4Cl)nn3C)c(Cl)c2Br)cc1 | 90 | 60 | <50 | 90 | < 50 | – | inactive | – | –
Cc1cc(-c2ccc(OC(F)(F)C(F)C(F)(F)F)cc2)sc1-c1nc(-c2c(F)cccc2Cl)nn1C (stereo unspecified) | 80 | 90 | 90 | 90 | 90 | <50 | – | – | –
Cc1sc(-c2nc(-c3c(F)cccc3Cl)nn2C)c(C)c1-c1ccc(OC(F)(F)C(F)Br)cc1 (stereo unspecified) | 80 | 80 | – | 90 | 50 | 80 | – | – | –
Cc1cc(-c2ccc3c(c2)OCCO3)sc1-c1nc(-c2c(F)cccc2Cl)nn1C | 80 | 90 | 80 | 90 | – | – | inactive | – | inactive
